Activity calls are given as the source filed them. How the calls were made is not given here.

This data set relates to CCRIS mutagenicity, Ames/micronucleus/aberration tests. As to the kind of experiment: CCRIS mutagenicity studies. The conditions noted are these: Test System: AMES SALMONELLA TYPHIMURIUM
The mark [1] stands for this setting: Strain/Indicator: TA98, Metabolic Activation: NONE, Method: PREINCUBATION
Setting [2] is: Strain/Indicator: TA100, Metabolic Activation: NONE, Method: PREINCUBATION
The mark [3] stands for this setting: Strain/Indicator: TA1535, Metabolic Activation: NONE, Method: PREINCUBATION

For the compound `CCCCC(=O)N=c1sn(C(=O)CCCC)c2ccc([N+](=O)[O-])cc12`, the mutagenic call (Strain/Indicator: TA100, Metabolic Activation: S-9, Method: STANDARD PLATE) was “active; positive”.

Take `Nc1ccc(Cc2ccc(N)c(Cc3ccc(N)cc3)c2)cc1`: the mutagenic call was “active; positive” (Strain/Indicator: TA97, Metabolic Activation: HAMSTER, LIVER, S-9, AROCLOR 1254 (10%), Method: PREINCUBATION); “inactive; negative” (Strain/Indicator: TA97, Metabolic Activation: NONE, Method: PREINCUBATION); “active; positive” (Strain/Indicator: TA97, Metabolic Activation: RAT, LIVER, S-9, AROCLOR 1254 (10%), Method: PREINCUBATION); “active; positive” (Strain/Indicator: TA98, Metabolic Activation: HAMSTER, LIVER, S-9, AROCLOR 1254 (10%), Method: PREINCUBATION); “inactive; negative” under setting [1]; “active; positive” (Strain/Indicator: TA98, Metabolic Activation: RAT, LIVER, S-9, AROCLOR 1254 (10%), Method: PREINCUBATION). Further, the mutagenic call (Strain/Indicator: TA100, Metabolic Activation: HAMSTER, LIVER, S-9, AROCLOR 1254 (10%), Method: PREINCUBATION) was “active; positive”; the mutagenic call under setting [2] is “inactive; negative”; the mutagenic call (Strain/Indicator: TA100, Metabolic Activation: RAT, LIVER, S-9, AROCLOR 1254 (10%), Method: PREINCUBATION) was “active; positive”; the mutagenic call (Strain/Indicator: TA1535, Metabolic Activation: HAMSTER, LIVER, S-9, AROCLOR 1254 (10%), Method: PREINCUBATION) was “inactive; negative”; the mutagenic call under setting [3] was “inactive; negative”; the mutagenic call (Strain/Indicator: TA1535, Metabolic Activation: RAT, LIVER, S-9, AROCLOR 1254 (10%), Method: PREINCUBATION) is “inactive; negative”. Besides, the mutagenic call was “active; positive” (Strain/Indicator: TA1537, Metabolic Activation: HAMSTER, LIVER, S-9, AROCLOR 1254 (10%), Method: PREINCUBATION) and “active; positive” (Strain/Indicator: TA1537, Metabolic Activation: RAT, LIVER, S-9, AROCLOR 1254 (10%), Method: PREINCUBATION).

For `O=[N+]([O-])c1ccccc1O`, the mutagenic call (Strain/Indicator: TA98, Metabolic Activation: HAMSTER, LIVER, S-9, AROCLOR 1254, FLAVIN MONONUCLEOTIDE, Method: PREINCUBATION) is “inactive; negative”; the mutagenic call under setting [1] was “inactive; negative”; the mutagenic call (Strain/Indicator: TA98, Metabolic Activation: RAT, LIVER, S-9, KANECHLOR 500, Method: PREINCUBATION) is “inactive; negative”; the mutagenic call (Strain/Indicator: TA98, Method: PREINCUBATION) is “inactive; negative”; the mutagenic call (Strain/Indicator: TA100, Metabolic Activation: HAMSTER, LIVER, S-9, AROCLOR 1254, FLAVIN MONONUCLEOTIDE, Method: PREINCUBATION) was “inactive; negative”; the mutagenic call under setting [2] was “inactive; negative”. The mutagenic call is, setting by setting: (Strain/Indicator: TA100, Metabolic Activation: RAT, LIVER, S-9, KANECHLOR 500, Method: PREINCUBATION) “inactive; negative”; (Strain/Indicator: TA100, Method: PREINCUBATION) “inactive; negative”; under setting [3], “inactive; negative”; (Strain/Indicator: TA1535, Method: PREINCUBATION) “inactive; negative”; (Strain/Indicator: TA1537, Metabolic Activation: NONE, Method: PREINCUBATION) “inactive; negative”; (Strain/Indicator: TA1537, Method: PREINCUBATION) “inactive; negative”. For the same compound, the mutagenic call reads like this: (Strain/Indicator: TA1538, Metabolic Activation: NONE, Method: PREINCUBATION) “inactive; negative”; (Strain/Indicator: TA1538, Method: PREINCUBATION) “inactive; negative”.

`COc1cc(O)c2c(=O)c3cc(O)ccc3oc2c1`: the mutagenic call is “active; positive” (Strain/Indicator: TA97, Metabolic Activation: RAT, LIVER, S-9, PHENOBARBITAL AND 5,6-BENZOFLAVONE, Method: PREINCUBATION); “inactive; negative” (Strain/Indicator: TA98, Metabolic Activation: RAT, LIVER, S-9, PHENOBARBITAL AND 5,6-BENZOFLAVONE, Method: PREINCUBATION); “inactive; negative” (Strain/Indicator: TA100, Metabolic Activation: RAT, LIVER, S-9, PHENOBARBITAL AND 5,6-BENZOFLAVONE, Method: PREINCUBATION); “active; positive” (Strain/Indicator: TA2637, Metabolic Activation: RAT, LIVER, S-9, 5,6-BENZOFLAVONE AND/OR SODIUM PHENOBARBITAL, Method: PREINCUBATION); “active; positive” (Strain/Indicator: TA2637, Metabolic Activation: RAT, LIVER, S-9, PHENOBARBITAL AND 5,6-BENZOFLAVONE, Method: PREINCUBATION); “inactive; negative” (Strain/Indicator: TA2637, Metabolic Activation: RAT, LIVER, S-105, 5,6-BENZOFLAVONE AND/OR SODIUM PHENOBARBITAL, Method: PREINCUBATION).

Consider `CCOc1cc(N=Nc2ccccc2)ccc1N=Nc1c(S(=O)(=O)O)cc2ccc(N)cc2c1O`, for which the mutagenic call by setting is: (Strain/Indicator: TA98, Metabolic Activation: NONE, Method: STANDARD PLATE) “inactive; negative”; (Strain/Indicator: TA98, Metabolic Activation: RAT, LIVER, S-9, AROCLOR 1254, Method: STANDARD PLATE) “active; positive”; (Strain/Indicator: TA100, Metabolic Activation: NONE, Method: STANDARD PLATE) “inactive; negative”; (Strain/Indicator: TA100, Metabolic Activation: RAT, LIVER, S-9, AROCLOR 1254, Method: STANDARD PLATE) “active; positive”; (Strain/Indicator: TA1538, Metabolic Activation: NONE, Method: STANDARD PLATE) “inactive; negative”; (Strain/Indicator: TA1538, Metabolic Activation: RAT, LIVER, S-9, AROCLOR 1254, Method: STANDARD PLATE) “active; positive”.

The values are drawn from PubChem BioAssay AID1259407 (Chemical Carcinogenesis Research Information System (CCRIS), 2018).
